The supplement of paper PMC11061612

Columns and labels:
Assay in all cases: Bliss excess, mean over the matrix (fraction); higher = more synergy
[1] = test system: TGBC24TKB (Biliary Tract Carcinoma)
Method in brief: (§1)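 Cell lines grown in DMEM/F12 or RPMI with 10% FBS were plated in 1536-well plates and held 24 hours at 37°C, 5% CO2 before 72 hours of exposure to two-drug dose matrices, with DMSO typically at 0.2%. CellTiter-Glo 2.0 luminescence gave viability, which was converted to inhibition. Vehicle wells were set to 0 and blank wells to 1. Combination Emax is the second-highest inhibition in the matrix, and Bliss excess is the observed combination effect minus the expected EA + EB − EA·EB, where EA and EB are the single-agent effects.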

RH-1 (Ewing's Sarcoma) = test system: RH-1 (Ewing's Sarcoma)
Method in brief: as §1

[2] = test system: SW756 (Cervical Carcinoma)
Method in brief: as §1

[3] = test system: SW780 (Bladder Carcinoma)
Method in brief: as §1

[4] = test system: KM-H2 (Hodgkin's Lymphoma)
Method in brief: as §1

[5] = test system: SUIT-2 (Pancreatic Carcinoma)
Method in brief: as §1

CS(=O)(=O)CCNCc1ccc(-c2ccc3ncnc(Nc4ccc(OCc5cccc(F)c5)c(Cl)c4)c3c2)o1 [Lapatinib] + NC1(c2ccc(-c3nc4ccn5c(=O)[nH]nc5c4cc3-c3ccccc3)cc2)CCC1 [MK-2206] (first compound max 10 µM, 7x7, partner max 10 µM)
Bliss excess [1]: 0.0667
Bliss excess (RH-1 (Ewing's Sarcoma)): -0.0202
Bliss excess [2]: -0.0506
Bliss excess [3]: -0.0054
Bliss excess [4]: 0.0116
Bliss excess [5]: -0.0219
